According to ChEMBL document CHEMBL1143016, “Scutiaquinones A and B, perylenequinones from the roots of Scutia myrtina with anthelmintic activity” (J Nat Prod, 2007):
Converted amounts (≈) assume the structure as drawn. The source made the active and inactive calls. The rule behind the calls is not given here.

Columns and labels:
[1] = test system: Heligmosomoides polygyrus; assay: Anthelmintic activity against Heligmosomoides polygyrus infected Swiss-Webster mouse assessed as reduction of worm counts at 25 mg/kg, im; format: functional, organism-based; parameters: dose 25 mg/kg
[2] = test system: Haemonchus contortus; assay: Anthelmintic activity against Haemonchus contortus assessed as reduction in L3 larval motility; format: functional
[3] = test system: Heligmosomoides polygyrus; assay: Anthelmintic activity against Heligmosomoides polygyrus infected Swiss-Webster mouse assessed as reduction of worm counts at 30 mg/kg, im; format: functional, organism-based; parameters: dose 30 mg/kg
[4] = test system: Mus musculus; assay: Toxicity in Swiss-Webster mouse at 50 mg/kg, im; format: organism-based; parameters: dose 50 mg/kg, route intramuscular; settings: in vivo

Row | SMILES | Activity [1] | EC90 [2] | Activity [3] | Activity [4]
1 | Cc1cc2c3cc(C)c(O)c4c(=O)c5c(c(c6c7c(c(=O)c(c1O)c26)[C@@H](C)O[C@@H](C)C7)c43)C[C@H](C)O[C@@H]5C [SCUTIAQUINONE A] | inactive | 9.3 µg/mL (≈ 18.2 µM) |  | 
2 | Cc1cc2c3c4c(c(O)c5c(=O)c(C)cc(c6c7c(c(=O)c(c1O)c26)[C@@H](C)O[C@@H](C)C7)c53)[C@@H](C)O[C@@H](C)C4 [SCUTIAQUINONE B] |  | 10.3 µg/mL (≈ 20.2 µM) | inactive | Toxic
